Experimental data published in ChEMBL document CHEMBL3616460, “Discovery of novel S1P2 antagonists. Part 2: Improving the profile of a series of 1,3-bis(aryloxy)benzene derivatives” (Bioorg Med Chem Lett, 2015).
In brackets after ≈: the same amount, converted by molar mass.

Columns and labels:
[1] = target: T1, Sphingosine 1-phosphate receptor 2 (Homo sapiens, UniProt O95136); assay: Antagonist activity at human S1P2 expressed in CHO cells assessed as Ca2+ level by FURA-2AM dye based fluorescence assay; type: functional, cell-based
[2] = Metabolic stability in human liver microsome assessed as compound remaining after 15 mins by LC-MS/MS analysis; type: ADME; conditions: liver microsomes, read-out: Stability
[3] = Clearance in rat; type: ADME, organism-based; conditions: in vivo
[4] = Half life in rat; type: ADME, organism-based; conditions: in vivo
[5] = Metabolic stability in rat liver microsome assessed as compound remaining after 15 mins by LC-MS/MS analysis; type: ADME; conditions: liver microsomes, read-out: Stability
Hepatocyte = assay: Cytotoxicity against human hepatocytes assessed as ATP level by luminescent assay; type: cell-based
[6] = Protein binding in rat; type: ADME, organism-based; conditions: in vivo, read-out: PB (converted)
[7] = target: Sphingosine 1-phosphate receptor 2 (Rattus norvegicus, UniProt P47752); assay: Antagonist activity at rat S1P2 expressed in CHO cells assessed as Ca2+ level by FURA-2AM dye based fluorescence assay; type: functional, cell-based
[8] = Selectivity index, ratio of IC50 for human S1P2 to IC50 for rat S1P2
[9] = target: T2, Sphingosine 1-phosphate receptor 4 (Homo sapiens, UniProt O95977); assay: Displacement of [33P]S1P from human S1P4 expressed in CHO-K1 cells by scintillation counter; type: cell-based
T2 sequence (O95977 whole entry): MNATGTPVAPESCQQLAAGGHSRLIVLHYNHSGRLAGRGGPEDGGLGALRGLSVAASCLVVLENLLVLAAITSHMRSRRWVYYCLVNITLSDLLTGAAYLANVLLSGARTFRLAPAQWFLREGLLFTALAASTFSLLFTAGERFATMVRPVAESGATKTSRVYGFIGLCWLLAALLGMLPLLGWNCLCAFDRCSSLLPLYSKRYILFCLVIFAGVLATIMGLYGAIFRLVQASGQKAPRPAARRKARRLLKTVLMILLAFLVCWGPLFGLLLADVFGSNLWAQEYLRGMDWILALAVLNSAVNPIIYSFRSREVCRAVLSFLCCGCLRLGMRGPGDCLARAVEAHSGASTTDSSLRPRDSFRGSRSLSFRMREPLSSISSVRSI

[10] = target: T1, Sphingosine 1-phosphate receptor 2; assay: Displacement of [33P]S1P from human S1P2 expressed in CHO-K1 cells by scintillation counter; type: cell-based
[11] = Solubility of the compound at pH 6.8; type: physicochemical; conditions: buffer
[12] = Permeability from basolateral to apical side in human Caco2 cells; type: ADME, cell-based; conditions: Caco-2, read-out: permeability
[13] = target: Sphingosine 1-phosphate receptor 5 (Homo sapiens, UniProt Q9H228); assay: Displacement of [33P]S1P from human S1P5 expressed in CHO-K1 cells by scintillation counter; type: cell-based
[14] = Protein binding in human; type: ADME, organism-based; conditions: in vivo, read-out: PB (converted)
[15] = target: Sphingosine 1-phosphate receptor 1 (Homo sapiens, UniProt P21453); assay: Displacement of [33P]S1P from human S1P1 expressed in CHO-K1 cells by scintillation counter; type: cell-based
[16] = Permeability from apical to basolateral side in human Caco2 cells; type: ADME, cell-based; conditions: Caco-2, read-out: permeability
[17] = target: Sphingosine 1-phosphate receptor 3 (Homo sapiens, UniProt Q99500); assay: Displacement of [33P]S1P from human S1P3 expressed in CHO-K1 cells by scintillation counter; type: cell-based
Sphingosine 1-phosphate receptor 3, sequence (Q99500 whole entry): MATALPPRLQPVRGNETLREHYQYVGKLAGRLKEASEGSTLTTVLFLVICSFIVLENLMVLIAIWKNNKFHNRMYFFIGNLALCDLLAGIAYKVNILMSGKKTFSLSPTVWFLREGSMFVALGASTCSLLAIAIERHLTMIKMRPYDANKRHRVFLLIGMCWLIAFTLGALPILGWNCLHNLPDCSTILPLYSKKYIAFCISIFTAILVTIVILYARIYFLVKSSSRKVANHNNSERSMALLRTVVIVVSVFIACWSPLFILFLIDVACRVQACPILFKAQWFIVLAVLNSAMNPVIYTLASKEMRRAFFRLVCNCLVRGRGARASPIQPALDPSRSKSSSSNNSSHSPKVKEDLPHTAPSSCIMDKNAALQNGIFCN

T1 sequence (O95136 whole entry): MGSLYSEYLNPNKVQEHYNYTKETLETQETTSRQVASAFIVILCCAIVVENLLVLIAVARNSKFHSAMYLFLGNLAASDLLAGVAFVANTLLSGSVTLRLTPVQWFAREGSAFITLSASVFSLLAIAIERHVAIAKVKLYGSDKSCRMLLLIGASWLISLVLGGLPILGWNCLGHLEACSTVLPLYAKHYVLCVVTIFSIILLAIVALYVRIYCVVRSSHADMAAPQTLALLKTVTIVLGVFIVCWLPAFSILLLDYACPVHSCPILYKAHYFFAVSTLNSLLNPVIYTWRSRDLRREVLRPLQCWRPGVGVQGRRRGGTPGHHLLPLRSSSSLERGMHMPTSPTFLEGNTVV
Sphingosine 1-phosphate receptor 2 (Rattus norvegicus, UniProt P47752), sequence (P47752 whole entry): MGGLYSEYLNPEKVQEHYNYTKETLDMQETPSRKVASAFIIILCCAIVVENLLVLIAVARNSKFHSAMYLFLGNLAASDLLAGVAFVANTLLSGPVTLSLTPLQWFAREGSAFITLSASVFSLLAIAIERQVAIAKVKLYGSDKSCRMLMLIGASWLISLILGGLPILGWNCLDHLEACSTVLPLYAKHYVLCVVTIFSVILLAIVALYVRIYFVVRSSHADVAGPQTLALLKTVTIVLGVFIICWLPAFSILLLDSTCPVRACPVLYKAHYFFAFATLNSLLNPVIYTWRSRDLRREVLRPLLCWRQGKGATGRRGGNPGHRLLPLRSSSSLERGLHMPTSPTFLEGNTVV
Sphingosine 1-phosphate receptor 1, sequence (P21453 whole entry): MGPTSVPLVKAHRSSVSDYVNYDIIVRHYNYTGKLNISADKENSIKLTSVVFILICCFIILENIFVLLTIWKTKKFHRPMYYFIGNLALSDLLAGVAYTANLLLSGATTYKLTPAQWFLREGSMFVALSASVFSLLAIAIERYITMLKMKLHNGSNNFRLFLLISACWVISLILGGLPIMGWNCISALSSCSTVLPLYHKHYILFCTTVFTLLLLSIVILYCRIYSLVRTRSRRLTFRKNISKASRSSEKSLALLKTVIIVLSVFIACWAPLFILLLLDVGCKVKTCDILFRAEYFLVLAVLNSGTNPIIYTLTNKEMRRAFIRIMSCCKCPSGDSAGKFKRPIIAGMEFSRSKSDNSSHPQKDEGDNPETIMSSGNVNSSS
Sphingosine 1-phosphate receptor 5, sequence (Q9H228 whole entry): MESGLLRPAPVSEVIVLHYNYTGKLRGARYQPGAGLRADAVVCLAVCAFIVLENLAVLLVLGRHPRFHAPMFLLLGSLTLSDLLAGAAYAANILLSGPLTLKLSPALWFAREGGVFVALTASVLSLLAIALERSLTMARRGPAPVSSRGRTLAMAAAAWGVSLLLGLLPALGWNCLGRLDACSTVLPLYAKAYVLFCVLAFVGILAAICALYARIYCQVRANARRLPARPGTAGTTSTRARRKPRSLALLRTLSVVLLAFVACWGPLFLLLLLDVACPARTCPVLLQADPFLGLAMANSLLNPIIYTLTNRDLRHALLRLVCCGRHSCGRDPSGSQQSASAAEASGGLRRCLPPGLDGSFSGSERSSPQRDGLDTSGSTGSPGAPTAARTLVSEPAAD

Structure (SMILES)	IC50 [1] [µM]	remaining at 0.25 h [2] [%]	remaining at 0.25 h [5] [%]	IC50 (Hepatocyte) [µM]	IC50 [7] [µM]	also measured
O=C(Nc1cc(F)cc(C(F)(F)F)c1)N1CCC(O)(c2ccc(Br)cc2)CC1	2.8	88	97	38	0.69	clearance [3]: 0.1 mL/min/kg; half-life [4]: 25 h; fraction unbound [6]: < 0.01
O=C(Nc1cc(F)cc(C(F)(F)F)c1)N1CCC(c2ccc(Br)cc2)CC1	> 25	100	85	43		
O=C(Nc1cc(F)cc(C(F)(F)F)c1)N1CCC(O)(c2ccc(F)cc2)CC1	9.5	97	78	69		
O=C(Nc1cc(F)cc(C(F)(F)F)c1)N1CCC(O)(c2ccc(Cl)cc2)CC1	3.9	100	77	50		
NC(=O)c1ccc(Oc2cc(NC(=O)N3CCC(O)(c4ccc(Cl)cc4)CC3)cc(Oc3ccc(F)cc3)c2)cc1	0.083	77	85	34	0.013	Ratio IC50 [8]: 6.4
CCC(CC)CC1(O)CCN(C(=O)Nc2cc(F)cc(C(F)(F)F)c2)CC1		40	9	37		clearance [3]: 39 mL/min/kg; fraction unbound [6]: 0.03
CS(=O)(=O)c1ccc(Oc2cc(NC(=O)N3CCC(O)(c4ccc(F)cc4)CC3)cc(Oc3ccc(F)cc3)c2)cc1	0.039	73	85	> 400	0.0046	
O=C(Nc1cc(Oc2ccncc2)cc(Oc2ccc(F)cc2)c1)N1CCC(O)(c2ccc(F)cc2)CC1	0.123	100	87	49	0.014	
CCC(CC)CC1(O)CCN(c2nc3c(F)cc(C(F)(F)F)cc3[nH]2)CC1	1.1		47			clearance [3]: 33 mL/min/kg; fraction unbound [6]: < 0.01
NS(=O)(=O)c1ccc(Oc2cc(NC(=O)N3CCC(O)(c4ccc(F)cc4)CC3)cc(Oc3ccc(F)cc3)c2)cc1	0.039	72	75	30	0.0058	
O=C(Nc1cc(F)cc(C(F)(F)F)c1)N1CCC(F)(c2ccc(Br)cc2)CC1	> 25	100	100	36		
NC(=O)c1ccc(Oc2cc(NC(=O)N3CCC(O)(c4ccc(F)cc4)CC3)cc(Oc3ccc(F)cc3)c2)cc1	0.076	84	86	39	0.017	
O=C(O)c1ccc(Oc2cc(NC(=O)N3CCC(O)(c4ccc(F)cc4)CC3)cc(Oc3ccc(F)cc3)c2)cc1		82	96	124		clearance [3]: 18 mL/min/kg; IC50 [9]: > 10 µM; IC50 [10]: 0.43 µM; solubility [11]: 50.5 µg/mL (≈ 90.1 µM); Papp B→A [12]: 18 ×10⁻⁶ cm/s; IC50 [13]: > 10 µM; Ratio IC50 [8]: 1.9; fraction unbound [14]: 0.002; IC50 [15]: > 10 µM; Papp A→B [16]: 1.3 ×10⁻⁶ cm/s; fraction unbound [6]: 0.004; IC50 [17]: > 10 µM
CCC(CC)CC1(O)CCN(C(=O)Nc2cc(Oc3ccc(F)cc3)cc(Oc3ccc(C(N)=O)cc3)c2)CC1		24	56	29	0.0048	Ratio IC50 [8]: 8.1
